Measurements as given in BigSolDB 2.1.

CC(C)[C@H](N)C(=O)O
solubility (mole fraction)
Conditions | 283.15 K | 288.15 K | 293.15 K | 298.15 K | 303.15 K | 308.15 K | 313.15 K | 318.15 K | 323.15 K | 328.15 K
in 1,4-dioxane | – | 6.7e-05 | 8.7e-05 | 0.000121 | 0.000169 | 0.000223 | 0.000281 | 0.000346 | 0.00041 | 0.000486
in acetone | 3.1e-05 | 4.1e-05 | 5.6e-05 | 7.5e-05 | 0.0001 | 0.000132 | 0.000171 | 0.000216 | 0.000256 | –
in acetonitrile | 2.4e-05 | 3.3e-05 | 4.3e-05 | 5.6e-05 | 6.8e-05 | 8.2e-05 | 9.9e-05 | 0.000116 | 0.000136 | –
in ethanol | 0.000254 | 0.00026 | 0.000272 | 0.000286 | 0.000303 | 0.00032 | 0.000338 | 0.000357 | 0.00038 | –
in ethyl acetate | 3.1e-05 | 3.7e-05 | 4.6e-05 | 5.7e-05 | 7.1e-05 | 8.4e-05 | 0.0001 | 0.000119 | 0.000136 | –
in isobutanol | 5e-05 | 6.1e-05 | 7.8e-05 | 9.9e-05 | 0.000123 | 0.000151 | 0.000185 | 0.000218 | 0.000258 | –
in isopropanol | 1.6e-05 | 1.8e-05 | 2.5e-05 | 3.2e-05 | 4.2e-05 | 5.6e-05 | 7e-05 | 9e-05 | 0.00011 | –
in methanol | 0.000585 | 0.000601 | 0.000624 | 0.000652 | 0.000684 | 0.000717 | 0.000754 | 0.000792 | 0.000834 | –
in methyl acetate | 3e-05 | 3.2e-05 | 3.4e-05 | 3.6e-05 | 4.2e-05 | 5.1e-05 | 6.7e-05 | 8.8e-05 | 0.000115 | –
in n-butanol | 2.4e-05 | 3.1e-05 | 4.7e-05 | 6.9e-05 | 9.1e-05 | 0.000115 | 0.000139 | 0.00017 | 0.000203 | –
in n-propanol | 1.5e-05 | 1.9e-05 | 2.3e-05 | 3e-05 | 3.7e-05 | 4.6e-05 | 5.5e-05 | 6.4e-05 | 7.7e-05 | –
in water | 0.00915 | 0.00921 | 0.00937 | 0.00954 | 0.00976 | 0.00998 | 0.0102 | 0.0105 | 0.0108 | –
